Laboratory results: publication PMC7744269 (Bioorganic & medicinal chemistry, 2010)

Key:
[1] = target: T1, Ureaplasma parvum thymidine kinase (UpTK) (Ureaplasma parvum serovar 3, UniProt Q9PPP5); assay: Phosphate transfer assay with [γ-32P]-ATP; assay type: biochemical; details: for Vmax values of UpTK, times lower than with AZT: compared with AZT
T1 sequence (Q9PPP5 1-223): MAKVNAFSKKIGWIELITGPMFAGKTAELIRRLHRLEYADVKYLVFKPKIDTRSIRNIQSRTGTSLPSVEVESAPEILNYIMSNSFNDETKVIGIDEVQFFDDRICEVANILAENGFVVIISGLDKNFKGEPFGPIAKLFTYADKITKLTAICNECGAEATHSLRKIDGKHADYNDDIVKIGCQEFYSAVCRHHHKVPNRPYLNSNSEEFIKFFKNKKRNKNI

[2] = tested on: viruses (HIV, Vaccinia virus, Cowpox virus, etc.); details: previously reported; cited from earlier work
[3] = target: T2, human thymidine kinase 1 (hTK1) (Homo sapiens, UniProt P04183); assay: IC50 determination, DE-81 filter paper [3H]-dThd assay, hTK1; assay type: biochemical
T2 sequence (P04183 1-234): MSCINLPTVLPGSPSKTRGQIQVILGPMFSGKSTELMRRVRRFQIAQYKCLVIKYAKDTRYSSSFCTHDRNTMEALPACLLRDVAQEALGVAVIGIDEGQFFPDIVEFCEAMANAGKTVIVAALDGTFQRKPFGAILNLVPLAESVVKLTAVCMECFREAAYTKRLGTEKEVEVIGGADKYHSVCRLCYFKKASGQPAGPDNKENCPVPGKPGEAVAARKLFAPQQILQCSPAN

Structure (SMILES)	Relative efficiency with UpTK ([1]; compared to dThd (set to 100%))	Vmax values of UpTK, times lower than with AZT [1]	Antiviral activity [2]	IC50 [3]	Phosphorylation with UpTK compared to hTK1 (relative activity) ([1]; UpTK vs hTK1)
CCCc1cn([C@H]2C[C@H](n3cc(C)c(=O)[nH]c3=O)O[C@@H]2CO)nn1 [Compound 6, 3′-(4-Propyl-1,2,3-triazol-1-yl)-3′-deoxythymidine]	1.6%	–	–	–	–
Cc1cn([C@H]2C[C@H](n3cc(-c4ccccc4)nn3)[C@@H](CO)O2)c(=O)[nH]c1=O [Compound 9, 3′-(4-Phenyl-1,2,3-triazol-1-yl)-3′-deoxythymidine]	–	3–4	devoid of significant antiviral activity	–	–
Cc1cn([C@H]2C[C@H](n3cc(-c4ccccn4)nn3)[C@@H](CO)O2)c(=O)[nH]c1=O [Compound 12, 3′-(4-(2-Pyridine)-1,2,3-triazole-1-yl)-2′-deoxythymidine]	–	3–4	devoid of significant antiviral activity	40 to 50 µM	–
Cc1cn([C@H]2C[C@H](n3cc(CO)nn3)[C@@H](CO)O2)c(=O)[nH]c1=O [Compound 1, 3′-(4-Hydroxymethyl-1,2,3-triazol-1-yl)-3′-deoxythymidine]	–	–	devoid of significant antiviral activity	–	–
Cc1cn([C@H]2C[C@H](n3cc(-c4ccc(F)cc4)nn3)[C@@H](CO)O2)c(=O)[nH]c1=O [Compound 13, 3′-(4-(4-Fluorophenyl)-1,2,3-triazole-1-yl)-2′-deoxythymidine]	–	3–4	devoid of significant antiviral activity	–	five times more potent with UpTK than hTK1
